Data set [1] is described as follows: Lipophilicity (logD7.4) determination according to the present invention, two 1-octanol/phosphate buffer solvent systems in 96 deep well plate, LC/MS. The class given is physicochemical. To be noted: 1-octanol:phosphate buffer pH 7.4 at 5:95 and 50:50, 25° C., 3 hours shaking; for logD: read-out: LogD Inventive determination method (Example). As to the method:
Thirty-eight test compounds were determined for logD7.4 according to the present invention. The solution amount per well was set to 1 mL, and 1-octanol was used as a hydrophobic solvent and a phosphate buffer solution buffered at pH 7.4 as a hydrophilic solvent. The amounts of the test substance to be added to the first and second solvent systems, respectively, were adjusted to be equal (X=Y in Equation I). […] Following the above-mentioned conditions, X=Y, a=5, b=95, and c=d=50 were substituted into Equation I to obtain the following quadratic equation (Equation II). As described below, once the test substance was determined, the value of C2/C1 could be determined on the basis of the peak area values and dilution ratios. The resulting value was substituted into Equation II to determine the distribution ratio D, and the common logarithm of this ratio was obtained to thereby compute logD7.4.
Dispensing, shaking, dilution and other steps were automated by a dispensing robot (Hamilton; MicroLabSTARlet), and transfer of plates between systems and some other tasks were performed manually. The specific test procedure is as follows.
Dulbecco's reagent (for 1 L of Sigma's PBS solution; containing 8 g of sodium chloride, 1.15 g of anhydrous sodium monohydrogen phosphate, 0.2 g of potassium chloride, and 0.2 g of anhydrous potassium dihydrogen phosphate) was diluted to give a volume of 1 L, stirring was performed, and insoluble matters were filtered off. The pH of the solution was measured and adjusted to pH 7.4 with 1N HCl.
A separating funnel was charged with a sufficient amount of each of 1-octanol (Kanto Chemical; for distribution coefficient determination) and the phosphate buffer solution prepared in (1), they were mixed well, and the mixture was allowed to stand overnight at room temperature. The upper and lower phases were recovered separately to obtain 1-octanol saturated with the phosphate buffer solution (saturated 1-octanol) and the phosphate buffer solution saturated with 1-octanol (saturated phosphate buffer solution). The resulting solutions were stored at room temperature.
A test compound was added to DMSO to prepare a 10 mM solution.
(1) Ten microliters of the 10 mM test compound solution in DMSO and then 490 μL of saturated 1-octanol were dispensed into a 96 deep well plate. Stirring by suction and ejection was repeated 10 times to prepare a standard octanol solution of the test compound.
(2) Fifty microliters of the standard octanol solution was dispensed into each of two wells; thereafter, 950 μL of the saturated phosphate buffer solution was dispensed into the first well (hydrophobic solvent:hydrophilic solvent=5:95), and 500 μL of the saturated phosphate buffer solution and 450 μL of saturated 1-octanol were dispensed into the second well (hydrophobic solvent:hydrophilic solvent=50:50).
(3) A pressure curable sealant was applied to the multiwell plate, and then the plate was shaken on a shaker at 25° C. for 3 hours. After the shaking, centrifugation was performed at 3000 rpm for 5 minutes.
(4) The lower phase (aqueous phase) was drawn from the first well and diluted 10-fold with methanol to thereby prepare a sample. From the second well, the upper phase (1-octanol phase) was drawn and diluted 10-fold and 50-fold with methanol to thereby prepare two additional samples.
With these 4 samples placed on an LC/MS auto sampler, determination was performed automatically.
(3) The aqueous solution of 0.1% formic acid (solution A) and the acetonitrile solution of 0.1% formic acid (solution B) were used as a HPLC mobile phase.
(4) HPLC was performed using Waters Acquity with a binary pump. The column stationary phase used was a reversed-phase column having octadecyl groups (Acquity BEH C18, 1.7 μm, 2.0×30 mm). The column temperature was set to 50° C.
(5) MS was performed using Waters ZQ or SQD. Data was acquired with the detection mode being set to ESI^+ and the type of ion to be detected being set to [M+H]^+.

A short description of data set [2]: Lipophilicity determination by a shake-flask method (Comparative Example), 1-octanol/phosphate buffer pH 7.4, LC/MS. Type of data set: physicochemical. To be noted: 1-octanol / phosphate buffer solution pH 7.4, shaken 10 minutes.
The conditions of data set [3]: cited from earlier work.

As a reminder, the logD is the decadic logarithm of the distribution of all forms, ionised or not, between an organic phase and buffer at a given pH. `NC(=O)N1c2ccccc2C=Cc2ccccc21` [Carbamazepine]: the logD is 2 in data set [1] and 1.8 in data set [2]. Further, the “LogD Literature value” in data set [3] was 1.5.
`Cc1ccc(-c2cc(C(F)(F)F)nn2-c2ccc(S(N)(=O)=O)cc2)cc1` [Celecoxib]: the logD in data set [1] was determined as 4.5; in data set [2], 4.3.
For the molecule `COc1ccc2c(c1)c(CC(=O)O)c(C)n2C(=O)c1ccc(Cl)cc1` [Indomethacin], the “LogD Inventive determination method (Example)” value in data set [1] was determined as 1.1. The same molecule gave a logD in data set [2] of 1.2. The “LogD Literature value” in data set [3] is 0.9.
On to `CC(CCc1ccccc1)NCC(O)c1ccc(O)c(C(N)=O)c1` (stereo not drawn) [Labetalol], for which the logD in data set [1] came to 0.9; in data set [2] it was 1.
The matching figures for `OCCN1CCN(CCCN2c3ccccc3Sc3ccc(Cl)cc32)CC1` [Perphenazine]: 3.6 and 3.8.
For `CCc1ccc(CCOc2ccc(CC3SC(=O)NC3=O)cc2)nc1` (stereo not drawn) [Pioglitazone], the logD in data set [1] was found to be 3.2; in data set [2], 3.
In the same order, the values of `CCCN(CCC)S(=O)(=O)c1ccc(C(=O)O)cc1` [Probenecid] are 0 and -0.3.
In the same order, the values of `CCOc1ccccc1OCCN[C@H](C)Cc1ccc(OC)c(S(N)(=O)=O)c1` [Tamsulosin] are 0.8 and 0.8.

Source of the values: US20130261986A1, “METHOD FOR DETERMINING LIPOPHILICITY” (ASTELLAS PHARMA INC., priority 2010, published 2013).
